Assay results published in DBAASP.
Converted amounts (≈) assume the structure as drawn.

Legend:
Test in all cases: ≥ marks a high value that may be exact or a test limit, other limits are often not marked, values filed in µg/mL are converted to µM
[1] = test system: Escherichia coli TOP 10
[2] = test system: Candida krusei ATCC 6258
[3] = test system: Enterococcus faecalis ATCC 29212
[4] = test system: Escherichia coli ATCC 12795
[5] = test system: Klebsiella pneumoniae ATCC 10031
[6] = test system: Mannheimia haemolytica 82-25
[7] = test system: Pseudomonas aeruginosa ATCC 27312
[8] = test system: Serratia marcescens ATCC 14756
[9] = test system: Staphylococcus aureus ATCC 29213
[10] = test system: Acinetobacter baumannii ATCC 7978
[11] = test system: Candida albicans ATCC 10231
[12] = test system: Enterococcus faecium E007
[13] = test system: Klebsiella pneumoniae WGLW2
[14] = test system: Staphylococcus aureus ATCC 29231
[15] = test system: Staphylococcus aureus MW2
[16] = test system: Escherichia coli W3110
[17] = test system: Klebsiella pneumoniae ATCC BAA-1705
[18] = test system: Escherichia coli BL21
[19] = test system: Pseudomonas aeruginosa PAO1
[20] = test system: Streptococcus pyogenes M1T1 5448
[21] = test system: Acinetobacter baumannii ATCC 19606
[22] = test system: Bacillus megaterium ATCC 13632
[23] = test system: Bacillus subtilis ATCC 6051
[24] = test system: Candida albicans ATCC 90028
[25] = test system: Candida tropicalis ATCC 750
[26] = test system: Cryptococcus neoformans ATCC 208821
[27] = test system: Enterococcus faecium ATCC 35667
[28] = test system: Escherichia coli ATCC 25922
[29] = test system: Klebsiella pneumoniae ATCC 700603
[30] = test system: Pseudomonas aeruginosa ATCC 27853
[31] = test system: Staphylococcus aureus ATCC 43300
[32] = test system: Staphylococcus aureus VRSA1
[33] = test system: Streptococcus pneumoniae ATCC 700677
[34] = test system: Acinetobacter baumannii
[35] = test system: Bacillus cereus ATCC 11778
[36] = test system: Escherichia coli O157:H7
[37] = test system: Listeria monocytogenes 10403s
[38] = test system: Salmonella enterica subsp. enterica serovar Typhimurium ATCC 13311
[39] = test system: Shigella sonnei ATCC 11060
[40] = test system: Staphylococcus aureus ATCC 25923
[41] = test system: Staphylococcus epidermidis ATCC 12228
[42] = test system: Vibrio cholerae O1 Inaba
[43] = test system: Klebsiella aerogenes ATCC 13048
[44] = test system: Pseudomonas aeruginosa PA14

For `CC(C)C[C@H](NC(=O)[C@@H](N)[C@@H](C)O)C(=O)N1CCC[C@H]1C(=O)N[C@@H](CCC(=O)O)C(=O)N[C@@H](Cc1c[nH]c2ccccc12)C(=O)N[C@@H](CC(=O)O)C(=O)N[C@@H](CC(=O)O)C(=O)N[C@@H](CCCN=C(N)N)C(=O)N[C@@H](CCCN=C(N)N)C(=O)N[C@H](C(=O)N[C@H](C(=O)N[C@@H](CC(N)=O)C(=O)N[C@@H](CO)C(N)=O)C(C)C)C(C)C` [TLPEWDDRRVVNS], the MIC [1] was at least 63 µM.

`CC(C)[C@H](N)C(=O)N[C@@H](CC(=O)O)C(=O)N[C@@H](CC(=O)O)C(=O)N[C@@H](CC(=O)O)C(=O)N[C@@H](CC(=O)O)C(=O)N[C@@H](CCCCN)C(=O)O` [VDDDDK] showed an MIC [2] of at least 2770 µM, an MIC [3] of 2670 µM (≈ 1880 µg/mL) and an MIC [4] of at least 900 µM. For the same molecule, the MIC [5] was at least 850 µM, the MIC [6] was at least 160 µM and the MIC [7] was at least 1500 µM. The MIC [8] was at least 3000 µM and the MIC [9] was 1080 µM (≈ 762 µg/mL).

`CC[C@H](C)[C@H](NC(=O)[C@H](CCCCN)NC(=O)[C@H](Cc1c[nH]c2ccccc12)NC(=O)[C@@H](N)CC(C)C)C(=O)NCC(=O)N[C@@H](Cc1c[nH]c2ccccc12)C(=O)N[C@@H](CCCCN)C(=O)N[C@H](C(=O)N[C@@H](Cc1c[nH]c2ccccc12)C(=O)N[C@@H](CCCN=C(N)N)C(=O)N[C@H](C(=O)NCC(=O)O)C(C)C)[C@@H](C)CC` [LWKIGWKIWRVG] gave an MIC [10] of 20.8 µM (≈ 32 µg/mL), an MIC [11] of 83 µM (≈ 128 µg/mL) and an MIC [12] of at least 83 µM. The MIC [13] was at least 41.5 µM, the MIC [14] was at least 41.5 µM and the MIC [15] was at least 41.5 µM.

For `CC[C@H](C)[C@H](NC(=O)[C@H](CCCN=C(N)N)NC(=O)[C@H](CCCN=C(N)N)NC(=O)[C@H](Cc1ccc(O)cc1)NC(=O)[C@H](CCCN=C(N)N)NC(=O)[C@H](CC(C)C)NC(=O)[C@H](CC(C)C)NC(=O)[C@H](CCCCN)NC(=O)[C@H](CC(C)C)NC(=O)CNC(=O)[C@H](Cc1c[nH]c2ccccc12)NC(=O)[C@H](CS)NC(=O)[C@H](C)NC(=O)[C@H](Cc1c[nH]c2ccccc12)NC(=O)[C@H](CCCN=C(N)N)NC(=O)[C@@H](N)Cc1c[nH]c2ccccc12)C(=O)N[C@@H](Cc1ccc(O)cc1)C(=O)O` [WRWACWGLKLLRYRRIY], the MIC [16] was 8 µM (≈ 18.7 µg/mL) and the MIC [17] was at least 64 µM.

`CC[C@H](C)[C@H](NC(=O)[C@H](CCCCN)NC(=O)[C@H](C)NC(=O)[C@H](CCCN=C(N)N)NC(=O)[C@H](CCCCN)NC(=O)CNC(=O)[C@H](CCCCN)NC(=O)[C@H](CCC(=O)O)NC(=O)[C@H](CCC(N)=O)NC(=O)[C@@H](NC(=O)[C@H](CCCCN)NC(=O)[C@H](CCCCN)NC(=O)[C@H](CCCCN)NC(=O)[C@H](CC(C)C)NC(=O)[C@H](CCCN=C(N)N)NC(=O)[C@H](CCC(N)=O)NC(=O)[C@H](Cc1ccccc1)NC(=O)[C@@H](NC(=O)[C@@H](NC(=O)[C@H](CCC(=O)O)NC(=O)[C@H](CCCCN)NC(=O)CNC(=O)[C@H](C)N)[C@@H](C)O)[C@@H](C)CC)[C@@H](C)CC)C(=O)N[C@@H](C)C(=O)N[C@@H](Cc1c[nH]c2ccccc12)C(=O)O` [AGKETIFQRLKKKIQEKGKRAKIAW] gave an MIC [18] of 1 µM (≈ 2.96 µg/mL), an MIC [19] of 32 µM (≈ 94.6 µg/mL) and an MIC [20] of 0.5 µM (≈ 1.48 µg/mL).

`CC[C@H](C)[C@H](N)C(=O)N[C@@H](Cc1ccccc1)C(=O)NCC(=O)N[C@H](C(=O)N[C@H](C(=O)N[C@@H](CC(C)C)C(=O)NCC(=O)N[C@@H](Cc1ccccc1)C(=O)N[C@@H](CC(C)C)C(=O)N[C@@H](CCCCN)C(=O)NCC(=O)N[C@@H](CC(C)C)C(N)=O)[C@@H](C)CC)[C@@H](C)O` [IFGTILGFLKGL] was tested, and the MIC [21] was 100 µM (≈ 128 µg/mL), the MIC [22] was 12.5 µM (≈ 16 µg/mL) and the MIC [23] was 25 µM (≈ 32 µg/mL). It also gave an MIC [24] of at least 100 µM, an MIC [25] of 25 µM (≈ 32 µg/mL) and an MIC [26] of 25 µM (≈ 32 µg/mL). It also gave an MIC [27] of 25 µM (≈ 32 µg/mL), an MIC [28] of 100 µM (≈ 128 µg/mL) and an MIC [29] of 200 µM (≈ 256 µg/mL). For the same molecule, the MIC [30] was over 200 µM, the MIC [9] was 12.5 µM (≈ 16 µg/mL) and the MIC [31] was 12.5 µM (≈ 16 µg/mL). The MIC [32] was 12.5 µM (≈ 16 µg/mL) and the MIC [33] was 25 µM (≈ 32 µg/mL).

For `CC(C)C[C@H](NC(=O)[C@@H](N)CCCN=C(N)N)C(=O)N[C@@H](Cc1ccccc1)C(=O)N[C@@H](CCCN=C(N)N)C(=O)N[C@@H](CCCN=C(N)N)C(=O)N[C@H](C(=O)N[C@@H](CCCCN)C(=O)N[C@@H](CCCCN)C(=O)N[C@H](C(=O)N[C@@H](C)C(=O)NCC(N)=O)C(C)C)C(C)C` [RLFRRVKKVAG], the MIC [34] was at least 188 µM, the MIC [35] was at least 188 µM and the MIC [3] was over 188 µM. For the same molecule, the MIC [28] was over 188 µM, the MIC [36] was at least 188 µM and the MIC [37] was at least 188 µM. It also gave an MIC [30] of over 188 µM, an MIC [38] of at least 188 µM and an MIC [39] of at least 188 µM. It also gave an MIC [40] of over 188 µM, an MIC [41] of over 188 µM and an MIC [42] of at least 188 µM.

In the case of `CC[C@H](C)[C@H](NC(=O)[C@H](CCCCN)NC(=O)[C@H](CCCCN)NC(=O)[C@H](Cc1c[nH]c2ccccc12)NC(=O)[C@@H](NC(=O)[C@H](CCCCN)NC(=O)[C@H](Cc1c[nH]c2ccccc12)NC(=O)[C@@H](N)CC(C)C)[C@@H](C)CC)C(=O)N[C@@H](Cc1c[nH]c2ccccc12)C(=O)N[C@@H](CCCN=C(N)N)C(=O)N[C@H](C(=O)N[C@@H](Cc1c[nH]c2ccccc12)C(=O)N[C@@H](CCCCN)C(=O)N[C@@H](CC(N)=O)C(=O)N[C@@H](Cc1c[nH]c2ccccc12)C(=O)N[C@@H](CCCN=C(N)N)C(=O)O)C(C)C` [LWKIWKKIWRVWKNWR], the MIC [10] is reported as 27.5 µM (≈ 64 µg/mL), the MIC [12] is reported as at least 55 µM and the MIC [43] is reported as 13.8 µM (≈ 32 µg/mL). For the same molecule, the MIC [44] was 13.8 µM (≈ 32 µg/mL) and the MIC [14] was 3.44 µM (≈ 8 µg/mL).
